Data taken from patent US20250276979A1, “SARS-COV2 MAIN PROTEASE INHIBITORS” (Gilead Sciences, Inc., priority 2024, published 2025).

system: SARS-CoV-2-NLuc in A549-hACE2 cells; test: microbe, parasite or virus in culture; assay type: cell-based; conditions: Severe acute respiratory syndrome coronavirus 2, 48 h; read-out: MPro EC50

Point of comparison: `O=C1CC(n2c(=O)[nH]c3cc(-c4ccccc4Cl)ccc3c2=O)CCCN1` (centres unmarked) [Example 9, 7-(2-chlorophenyl)-3-(2-oxoazepan-4-yl)quinazoline-2,4(1H,3H)-dione], EC50 4850 nM. Against it:
- COc1cc(-c2cc3c(s2)c(=O)n([C@@H]2CCCNC(=O)C2)c(=O)n3CCC#N)c(C#N)cc1F [Example 49, (R)-2-(1-(2-cyanoethyl)-2,4-dioxo-3-(2-oxoazepan-4-yl)-1,2,3,4-tetrahydrothieno[3,2-d]pyrimidin-6-yl)-5-fluoro-4-methoxybenzonitrile] — not separable, > 1000 nM
- COc1cc(-c2cc3[nH]c(=O)n([C@@H]4CCCNC(=O)C4)c(=O)c3s2)c(Cl)cc1Cl [Example 47, (R)-6-(2,4-dichloro-5-methoxyphenyl)-3-(2-oxoazepan-4-yl)thieno[3,2-d]pyrimidine-2,4(1H,3H)-dione] — 180-fold lower, 27.7 nM
- COc1ccc(Cl)c(-c2cc3c(s2)c(=O)n([C@@H]2CCCNC(=O)C2)c(=O)n3CC#N)c1 [Example 28, (R)-2-(6-(2-chloro-5-methoxyphenyl)-2,4-dioxo-3-(2-oxoazepan-4-yl)-3,4-dihydrothieno[3,2-d]pyrimidin-1(2H)-yl)acetonitrile] — 830-fold lower, 5.87 nM
- O=C1C[C@H](n2c(=O)[nH]c3cc(-c4ccccc4Cl)ccc3c2=O)CCN1 [Example 6, (R)-7-(2-chlorophenyl)-3-(2-oxopiperidin-4-yl)quinazoline-2,4(1H,3H)-dione] — 6.2-fold higher, 29900 nM
- COc1cc(-c2cc3[nH]c(=O)n([C@@H]4CCCNC(=O)C4)c(=O)c3s2)c(C)cc1F [Example 45, (R)-6-(4-fluoro-5-methoxy-2-methylphenyl)-3-(2-oxoazepan-4-yl)thieno[3,2-d]pyrimidine-2,4(1H,3H)-dione] — 35-fold lower, 137 nM
- COc1cc(-c2cc3[nH]c(=O)n([C@@H]4CCCNC(=O)C4)c(=O)c3s2)c(C#N)cc1F [Example 46, (R)-2-(2,4-dioxo-3-(2-oxoazepan-4-yl)-1,2,3,4-tetrahydrothieno[3,2-d]pyrimidin-6-yl)-5-fluoro-4-methoxybenzonitrile] — 6.3-fold lower, 771 nM
- COc1cc(-c2cc3[nH]c(=O)n([C@H]4CCCNC(=O)C4)c(=O)c3s2)c(Cl)cc1F [Example 31, (S)-6-(2-chloro-4-fluoro-5-methoxyphenyl)-3-(2-oxoazepan-4-yl)thieno[3,2-d]pyrimidine-2,4(1H,3H)-dione] — 95-fold lower, 51.2 nM
- COc1cc(-c2cc3[nH]c(=O)n([C@H]4CNC(=O)C4)c(=O)c3o2)c(Cl)cc1F [Example 57, 6-(2-chloro-4-fluoro-5-methoxy-phenyl)-3-[(3R)-5-oxopyrrolidin-3-yl]-1H-furo[3,2-d]pyrimidine-2,4-dione] — not separable, > 1000 nM
- COc1cc(-c2cc3c(s2)c(=O)n([C@H]2CCCNC(=O)C2)c(=O)n3CC#N)c(Cl)cc1F [Example 35, (S)-2-(6-(2-chloro-4-fluoro-5-methoxyphenyl)-2,4-dioxo-3-(2-oxoazepan-4-yl)-3,4-dihydrothieno[3,2-d]pyrimidin-1(2H)-yl)acetonitrile] — 57-fold lower, 84.6 nM
- COc1ccc(Cl)c(-c2cc3[nH]c(=O)n(C4CCNC(=O)C4)c(=O)c3s2)c1 (centres unmarked) [Example 7, 6-(2-chloro-5-methoxy-phenyl)-3-(2-oxo-4-piperidyl)-1H-thieno[3,2-d]pyrimidine-2,4-dione] — 63-fold lower, 77.1 nM
- COc1cc(-c2cc3c(s2)c(=O)n([C@@H]2CCCNC(=O)C2)c(=O)n3CCN2CCCC2=O)c(Cl)cc1F [Example 39, (R)-6-(2-chloro-4-fluoro-5-methoxyphenyl)-3-(2-oxoazepan-4-yl)-1-(2-(2-oxopyrrolidin-1-yl)ethyl)thieno[3,2-d]pyrimidine-2,4(1H,3H)-dione] — 33-fold lower, 148 nM
- COc1cc(-c2cc3[nH]c(=O)n(C4CCNC(=O)C4)c(=O)c3s2)c(Cl)cc1F (centres unmarked) [Example 14, 6-(2-chloro-4-fluoro-5-methoxyphenyl)-3-(2-oxopiperidin-4-yl)thieno[3,2-d]pyrimidine-2,4(1H,3H)-dione] — 15-fold lower, 318 nM
- COc1cnc(Cl)c(-c2cc3[nH]c(=O)n(C4CCNC(=O)C4)c(=O)c3s2)c1 (centres unmarked) [Example 15, 6-(2-chloro-5-methoxypyridin-3-yl)-3-(2-oxopiperidin-4-yl)thieno[3,2-d]pyrimidine-2,4(1H,3H)-dione] — 3.8-fold higher, 18600 nM
